For experiment [1], the target named is T1, Sodium-dependent serotonin transporter (Homo sapiens, UniProt P31645). Put plainly: biochemical. In kind it is cell-based, HEK293.
Target sequence in this assay (P31645 whole entry): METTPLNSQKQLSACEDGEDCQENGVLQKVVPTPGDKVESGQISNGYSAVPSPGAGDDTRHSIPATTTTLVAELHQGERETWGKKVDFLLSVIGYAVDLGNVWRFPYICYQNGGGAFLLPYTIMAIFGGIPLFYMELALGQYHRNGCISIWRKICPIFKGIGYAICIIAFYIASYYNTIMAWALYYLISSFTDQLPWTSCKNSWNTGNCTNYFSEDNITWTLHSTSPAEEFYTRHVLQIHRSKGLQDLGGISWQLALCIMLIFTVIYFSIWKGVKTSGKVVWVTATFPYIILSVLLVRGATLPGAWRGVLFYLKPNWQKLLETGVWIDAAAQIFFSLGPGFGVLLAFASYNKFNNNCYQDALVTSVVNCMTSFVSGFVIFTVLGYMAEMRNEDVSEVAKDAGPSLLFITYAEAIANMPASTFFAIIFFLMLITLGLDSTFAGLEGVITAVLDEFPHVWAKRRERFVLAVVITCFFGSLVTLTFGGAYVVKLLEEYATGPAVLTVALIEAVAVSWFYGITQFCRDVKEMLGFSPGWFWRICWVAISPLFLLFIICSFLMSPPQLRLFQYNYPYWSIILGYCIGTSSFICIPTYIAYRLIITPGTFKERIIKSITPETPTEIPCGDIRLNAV
Description: Displacement of [125I]-RTI-55 from human SERT expressed in HEK293 cell membranes after 1 hr by gamma counting method
The target in experiment [2] is T1, Sodium-dependent serotonin transporter. Put plainly: Binding affinity to human SERT expressed in HEK293 cells at 1 uM preincubated for 1 hr followed by UV light irradiation for 20 mins in presence of (S)-citalopram by IRDye 800 CW azide based tandem photoaffinity labeling-biorthogonal conjugation assay. In kind it is cell-based.
Target sequence in this assay (P31645 whole entry, looked up): as the sequence (P31645 whole entry) above
Experiment [3] shares this target. Put plainly: Binding affinity to human SERT expressed in HEK293 cells at 1 uM after 1 hr by IRDye 800 CW azide based tandem photoaffinity labeling-biorthogonal conjugation assay. Type of experiment: cell-based.
Target sequence in this assay (P31645 whole entry, looked up): as the sequence (P31645 whole entry) above
Experiment [4] shares this target. Put plainly: Binding affinity to human SERT expressed in HEK293 cells at 1 uM preincubated for 1 hr followed by UV light irradiation for 20 mins by IRDye 800 CW azide based tandem photoaffinity labeling-biorthogonal conjugation assay. In kind it is cell-based.
Target sequence in this assay (P31645 whole entry, looked up): as the sequence (P31645 whole entry) above
Experiment [5] has the same target. The experiment is described as follows: Potency index, ratio of (S)-citalopram Ki to compound Ki for displacement of [125I]-RTI-55 from human SERT expressed in HEK293 cell membranes. A general note: Loss of bound radioactivity is the signal in a displacement assay; it reports binding, not function.
Target sequence in this assay (P31645 whole entry, looked up): as the sequence (P31645 whole entry) above

Our source for the Ki, Activity and Ratio Ki values is ChEMBL document CHEMBL4265966 (Bioorg Med Chem Lett, 2018).

pKi: −log10 of the molar value. Calls of active or inactive are those of the source. The calls are words filed in the database; no cut-off is given here.

On to `CN(C)CCC[C@@]1(c2ccc(F)cc2)OCc2cc(CNC(=O)c3cc(CN=[N+]=[N-])cc(N=[N+]=[N-])c3)ccc21`, for which the pKi in experiment [1] was 7.97.
`C#CCOc1ccc(C(=O)c2ccc(CN(C)CCC[C@@]3(c4ccc(F)cc4)OCc4cc(C#N)ccc43)cc2)cc1` showed a pKi in experiment [1] of 6.31.
On to `C#CCOc1ccc(C(=O)c2ccc(C(=O)NCc3ccc4c(c3)CO[C@@]4(CCCN(C)C)c3ccc(F)cc3)cc2)cc1`, for which the pKi in experiment [1] was 9.80. For the same compound, the outcome in experiment [2] and in experiment [3] was inactive. The outcome in experiment [4] was Active. Also, the Ratio Ki in experiment [5] turned out to be 11.

A word on the pKi: it is −log10 of the Ki, conventionally taken in molar units.
